“And” between values parts separate entries of the source, which are not always exact repeats. Identical values can stand only once. Like-named read-outs stand apart in the source and are kept apart here.
Tests used:
[1] = system: cluster headaches; details: cited from earlier work
[2] = system: migraine; assay: Retrospective chart review of migraine treatment efficacy in 20 headache clinic patients; format: in vivo, human; design: key: 1: no measurable efficacy; 2: some measurable difference in severity and or frequency of headache; 3: modest improvement in severity or frequency of headache; 4: headache frequency improvement either 50% or greater in frequency, severity or both; details: topiramate alone, monotherapy for at least 6 weeks; one line per patient at the indicated daily dosage
Description: (§1) In a headache clinic, 20 patients suffering from migraine are treated with a dosage of topiramate and then an additional, secondary therapeutic component comprising one of the following therapeutic agents, or mixture of agents: 1) a commercially available combination tablet sold under the name Migrelief® dietary supplement contains puracol feverfew extract (comprising partheolide), magnesium citrate/oxide (1:1), and riboflavin; and 2) a second medicine having the trade name Migravent® natural supplement containing butterbur extract (including petasin and isopetasin), and a blend of riboflavin, magnesium and coenzyme Q10; these combined ingredients are present in a “proprietary blend” of 876 mg.
(§2) In twenty patients suffering from migraine the effect of augmentation of topiramate treatment was formally documented. […] Patients were treated in combination therapy with topiramate and the indicated second agent for 6 weeks before side effect and efficacy data were obtained for comparison with the monotherapy data. Dosages of the second therapeutic component was as follows: Migravent: 150 mg pyrrolizidine alkaloids (PA) free) and 876 mg (Riboflavin, Magnesium, Co-enzyme Q-10 [propriety blend]); Migralief: Magnesium citrate and oxide 360 mg, riboflavin 400 mg and Puracol Feverfew (Tanacetum parthenium). […]

[3] = system: migraine; assay: as above; format: in vivo, human; design: concentration or dose not given beside the values; details: topiramate alone, monotherapy for at least 6 weeks; one line per patient at the indicated daily dosage
Description: as §1, §2

[4] = system: migraine; details: cited from earlier work; for reduction of migraine incidents vs. placebo: 50 mg/day or less
[5] = Retrospective chart review of topiramate side effect profile in 20 migraine patients; format: in vivo, human; design: key: 1: mild or none; 2: tolerable, not treatment limiting; 3: warrants trial of topiramate dose reduction; 4: considering stopping topiramate treatment strongly; details: topiramate alone, monotherapy for at least 6 weeks; one line per patient at the indicated daily dosage
[6] = system: Leishmania amazonensis; details: cited from earlier work
[7] = cited from earlier work
[8] = system: acute myelogenous leukemia cells; details: normal bone marrow cells relatively unscathed; cited from earlier work

| Compound | rapid relief of cluster headaches ([1]; 50, 100, or 125 mg/day) | time to control the cluster headaches ([1]; daily delivery in the 50-125 mg range) | Efficacy [2] | Efficacy [3] | reduction of migraine incidents vs. placebo [4] | reduction of migraine incidents vs. placebo ([4]; listed as toprimate) | Side Effects ([4]; 100 mg or more per day) | prophylactic effect versus placebo ([4]; 100 mg per day or greater) | patients reporting an increase in migraine and other headaches ([4]; human, in vivo) | reduction of migraine frequency ([4]; patients having an average of 5.5 migraine per month, placebo: one headache per month) | Side Effects [5] | activity against Leishmania amazonensis [6] | solubility in water [7] | effect on acute myelogenous leukemia cells [8] |
| --- | --- | --- | --- | --- | --- | --- | --- | --- | --- | --- | --- | --- | --- | --- |
| 2,3:4,5-Di-O-isopropylidene-β-D-fructopyranose sulfamate [Topiramate] | inadequate in providing rapid relief | 1-3 weeks | 2 (9×) and 3 (8×) | 4 (headache frequency improvement either 50% or greater in frequency, severity or both) | no statistical significance | did not show statistically significant efficacy | significant unacceptable side effects | statistically significant prophylactic effects | > 1% | about 2 headaches per month | 1 (4×) and 4 (8×) and 3 (6×) and 2 (2×) | – | – | – |
| C=C1C(=O)O[C@H]2[C@H]1CC/C(C)=C/CC[C@@]1(C)O[C@@H]21 [Parthenolide] | – | – | – | – | – | – | – | – | – | – | – | active against the parasite Leishmania amazonensis | limited solubility in water | destroy acute myelogenous leukemia cells by inducing apoptosis |

From US20110117070A1, “COMPOSITIONS AND METHODS FOR TREATING HEADACHE” (priority 2005, published 2011)
